Reference: patent US8598118B2, “Hepatocyte growth factor mimics as therapeutic agents” (Washington State University, priority 2011, dated 2013)
Structures can show the parent of a compound that is named as a salt. Where a SMILES comes first, the peptide text is derived from it. [ ]: non-standard residue; d: D form. dNle = CCCC[C@@H](N)C(=O)O; Nle = CCCC[C@H](N)C(=O)O; Ahx = NCCCCCC(=O)O

Legend:
[1] = tested on: Met; test: Inhibition of HGF-dependent Met phosphorylation in HEK293 cells; format: cell-based, human; settings: 10 min
Procedure: HEK293 cells were seeded in 6 well tissue culture plates and grown to 95% confluency in DMEM containing 10% FBS. The cells were serum deprived for 24 h prior to the treatment to reduce the basal levels of phospho-Met. Following serum starvation, cocktails comprised of vehicle and HGF with/without 6-AH analogs were prepared and pre-incubated for 30 min at room temperature. The cocktail was then added to the cells for 10 min to stimulate the Met receptor and downstream proteins. Cells were harvested using RIPA lysis buffer (Millipore; Billerica, Mass.) fortified with phosphatase inhibitor cocktails 1 and 2 (Sigma-Aldrich; St. Louis, Mo.). The lysate was clarified by centrifugation at 15,000 nx g for 15 min, protein concentrations were determined using the BCA total protein assay (Pierce), and then appropriate volumes of the lysates were diluted with 2× reducing Laemmli buffer and heated for ten min at 95° C. Samples containing identical amounts of protein were resolved using SDS-PAGE (Criterion, BioRad Laboratories), transferred to nitrocellulose, and blocked in Tris-buffered saline (TBS) containing 5% milk for 1 h at room temperature. The phospho-Met antibody were added to the blocking buffer at a final concentration of 1:1000 and incubated at 4° C. overnight with gentle agitation. The membranes were then washed several times with water and TBS ([…], 0.05% Tween-20), a 1:5000 dilution of horseradish-peroxidase conjugated goat anti-rabbit antiserum was added, and the membranes further incubated for 1 h at room temperature. Proteins were visualized using the Supersignal West Pico Chemiluminescent Substrate system (Pierce, Fenton, Mo.) and molecular weights determined by comparison to protein ladders (BenchMark, Invitrogen, and Kaleidoscope, BioRad). Film images were digitized and analyzed using a UVP phosphoimager.

[2] = tested on: MDCK cells; test: Inhibition of HGF-dependent scattering in MDCK cells; format: cell-based, canine; settings: for inhibition of HGF-dependent MDCK cell scattering: 20 ng/ml HGF, 48 h
Procedure: (§1) MDCK cells were grown to 100% confluency on the coverslips in six-well plates and washed twice with PBS. The confluent coverslips were then aseptically transferred to new six well plates containing 900 μl serum free DMEM. Norleual, Hinge peptide, and/or HGF (20 ng/ml) were added to appropriate wells. Control wells received PBS vehicle. Plates were incubated at 37° C. with 5% CO2 for 48 hours. Media was removed and cells were fixed with methanol. Cells were stained with Diff-Quik Wright-Giemsa (Dade-Behring, Newark, Del.) and digital images were taken. Coverslips were removed with forceps and more digital images were captured. Pixel quantification of images was achieved using Image J and statistics were performed using Prism 5 and InStat v.3.05.
as §1, with “h.” for “hours.”, “v.3.05 (GraphPad; San Diego, Calif.).” for “v.3.05.”

[3] = tested on: MDCK cells; test: HGF-dependent MDCK cell proliferation (MTT); format: cell-based, canine; settings: analog 10^−10M, 4 days
Procedure: 5000 MDCK cells were seeded into the wells of a 96 well plates in 10% FBS DMEM. To induce cellular quiescence, the cells were serum deprived for 24 h prior to initiating the treatments. Following serum starvation, 10 ng/ml HGF alone and with various concentrations of 6-AH analogs or PBS vehicle were added to the media. The cells were allowed to grow under these conditions for 4 days with a daily addition of 6-AH analogs. On the fourth day, 1 mg/ml of […] (MTT, Sigma-Aldrich) prepared in PBS was added to the cells and incubated for 4 h. Dimethyl sulfoxide diluted in a 0.01M glycine buffer was added to solubilize the cell membranes and the absorbance of reduced MTT in the buffer was quantitated at 590 nm using a plate reader (Biotek Synergy 2, Winooski, Vt.). HGF-dependent proliferation was determined by subtracting the basal proliferation (in the absence of HGF) from total proliferation rates in groups containing HGF.

[4] = tested on: hippocampal neurons; test: Spinogenesis in mRFP-β-actin transfected dissociated hippocampal neurons; format: cell-based, rat
Procedure: (§2) Hippocampal neurons (2×10^5 cells per square cm) were cultured from P1 Sprague Dawley rats on plates coated with poly-L-lysine from Sigma (St. Louis, Mo.; molecular weight 300,000). Hippocampal neurons were maintained in Neurobasal A media from Invitrogen (Carlsbad, Calif.) supplemented with B27 from Invitrogen, 0.5 mM L-glutamine, and […] cytosine-D-arabinofuranoside from Sigma added at 2 days in vitro. Hippocampal neurons were then cultured a further 3-7 days, at which time they were either transfected or treated with various pharmacological reagents as described in (Wayman, Davare et al. 2008).
(§3) Neurons were transfected with mRFP-β-actin on day in vitro 6 (DIV6) using LipofectAMINE™ 2000 (Invitrogen) according to the manufacturer's protocol. This protocol yielded the desired 3-5% transfection efficiency thus enabling the visualization of individual neurons. Higher efficiencies obscured the dendritic arbor of individual neurons. Expression of fluorescently tagged actin allowed clear visualization of dendritic spines, as dendritic spines are enriched in actin. On DIV7 the cells were treated with vehicle (H20) or peptides (as described in the text) added to media. On DIV 12 the neurons were fixed (4% paraformaldehyde, 3% sucrose, 60 mM PIPES, 25 mM HEPES, 5 mM EGTA, 1 mM MgCl2, pH 7.4) for 20 min at room temperature and mounted. Slides were dried for at least 20 hours at 4° C. and fluorescent images were obtained with Slidebook 4.2 Digital Microscopy Software driving an Olympus IX81 inverted confocal microscope with a 60× oil immersion lens, NA 1.4 and resolution 0.280 μm Dendritic spine density was measured on primary and secondary dendrites at a distance of at least 150 μm from the soma. Five 50 μm long segments of dendrite from at least 10 neurons per data point were analyzed for each data point reported. Each experiment was repeated at least three times using independent culture preparations. Dendrite length was determined using the National Institutes of Health's Image J 1.41o program (NIH, Bethesda, Md.) and the neurite tracing program Neuron J (Meijering, Jacob et al. 2004) Spines were manually counted.
as §2, with “centimeter)” for “cm)”, “P1-2” for “P1”, “the text or figure legends.” for “(Wayman, Davare et al. 2008).”

[5] = tested on: hippocampal neurons; test: Whole-cell recordings of AMPA-mediated mEPSCs; format: cell-based, rat
[6] = tested on: CA1 hippocampal neurons; test: Spinogenesis in organotypic hippocampal slice cultures; format: cell-based, rat; settings: 10^−12 M, 2 days, organotypic slices
Procedure: (§4) Hippocampi from P4 Sprague Dawley rats were cultured as previously described (Wayman, Impey et al. 2006). Briefly, 400 μm slices were cultured on (Milipore, Billerica, Mass.) for 3 days after which they were biolistically transfected with tomato fluorescent protein (TFP) using a Helios Gen Gun (BioRad, Hercules, Calif.), according to the manufacturer's protocol, to visualize dendritic arbors. Following a 24 hour recovery period slices were stimulated with vehicle (H2O), 1 pM Nle1-AngIV or Dihexa for 2 days. Slices were fixed and mounted. Hippocampal CA1 neuronal processes were imaged and measured as described above.
as §4, with “Gene” for “Gen”, “with” for “with vehicle (H2O),”

[7] = target: T1, c-Met receptor (Rattus norvegicus, UniProt P97523); test: Effect of c-Met knock-down (shMet) on spinogenesis in hippocampal neurons; format: cell-based; settings: neurons transfected with mRFP-β-actin alone; 10^−12 M, 48 hours
T1 construct: Dissociated hippocampal neurons were transfected with mRFP-β-actin and shMet RNA; endogenous in cells; host or cells: dissociated hippocampal neurons from P1-2 Sprague Dawley rats
Text: as §3
A target sequence for c-Met was designed using RNAi central design program (see the website located at cancan.cshl.edu/). […]. The shRNA was transfected into cells using the lipofectamine method described above. Verification of receptor knockdown was done by creating a c-Met-6-Myc tagged gene product using the Gateway cloning system (Invitrogen). […]

[8] = tested on: Male Sprague-Dawley rats; test: Morris water maze with the HGF antagonist Hinge (Example 2)
Procedure: Male Sprague-Dawley rats (Taconic derived) weighing 390-450 g were maintained with free access to water and food (Harland Tekland F6 rodent diet, Madison, Wis.) except the night prior to surgery when food was removed. Each animal was anesthetized with Ketamine hydrochloride plus Xylazine (100 and 2 mg/kg im. respectively; Phoenix Scientific; St. Joseph, Mo., and Moby; Shawnee, Kans.). […] The guide cannula measured 2.5 cm in overall length and was prepared with a heat bulge placed 2.5 mm from its beveled tip, thus acting as a stop to control the depth of penetration. Once in position, the cannula was secured to the skull with two stainless-steel screws and dental cement. […]
A black circular platform (diameter: 12 cm; height: 24 cm) was placed 30 cm from the wall and submerged 2 cm below the water surface. […] The swimming path of the animals was recorded using a computerized video tracking system (Chromotrack; San Diego Instruments, CA). […] Swim speed was determined from these values. […]
Morris water maze data set mean latencies to find the platform during each daily block of five trials were calculated for each animal for each day of acquisition. […] Significant effects were analyzed by Newman-Keuls post-hoc test with a level of significance set at P<0.05.

T1 sequence (P17945 33-495 partner limits assumed): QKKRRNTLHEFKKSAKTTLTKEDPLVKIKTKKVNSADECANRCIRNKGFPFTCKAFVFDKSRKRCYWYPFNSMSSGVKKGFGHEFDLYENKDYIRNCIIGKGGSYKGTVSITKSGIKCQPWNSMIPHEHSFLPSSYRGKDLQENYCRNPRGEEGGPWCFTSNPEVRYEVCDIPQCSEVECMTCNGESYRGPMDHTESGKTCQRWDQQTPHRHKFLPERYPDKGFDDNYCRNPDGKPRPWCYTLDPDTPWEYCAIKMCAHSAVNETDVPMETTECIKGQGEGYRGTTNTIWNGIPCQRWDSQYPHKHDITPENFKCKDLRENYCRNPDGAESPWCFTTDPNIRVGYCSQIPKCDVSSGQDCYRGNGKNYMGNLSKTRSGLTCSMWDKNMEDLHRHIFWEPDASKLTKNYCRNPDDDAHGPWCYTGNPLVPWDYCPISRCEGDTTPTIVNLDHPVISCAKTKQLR
T1 sequence (P17945 496-728 partner limits assumed): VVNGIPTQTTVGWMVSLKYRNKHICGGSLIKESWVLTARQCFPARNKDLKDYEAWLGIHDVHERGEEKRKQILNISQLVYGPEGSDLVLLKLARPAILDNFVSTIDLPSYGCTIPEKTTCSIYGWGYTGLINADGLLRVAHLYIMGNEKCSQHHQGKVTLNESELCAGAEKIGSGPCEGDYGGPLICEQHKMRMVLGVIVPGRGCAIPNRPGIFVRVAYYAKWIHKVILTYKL
T1 sequence (P97523 25-1382): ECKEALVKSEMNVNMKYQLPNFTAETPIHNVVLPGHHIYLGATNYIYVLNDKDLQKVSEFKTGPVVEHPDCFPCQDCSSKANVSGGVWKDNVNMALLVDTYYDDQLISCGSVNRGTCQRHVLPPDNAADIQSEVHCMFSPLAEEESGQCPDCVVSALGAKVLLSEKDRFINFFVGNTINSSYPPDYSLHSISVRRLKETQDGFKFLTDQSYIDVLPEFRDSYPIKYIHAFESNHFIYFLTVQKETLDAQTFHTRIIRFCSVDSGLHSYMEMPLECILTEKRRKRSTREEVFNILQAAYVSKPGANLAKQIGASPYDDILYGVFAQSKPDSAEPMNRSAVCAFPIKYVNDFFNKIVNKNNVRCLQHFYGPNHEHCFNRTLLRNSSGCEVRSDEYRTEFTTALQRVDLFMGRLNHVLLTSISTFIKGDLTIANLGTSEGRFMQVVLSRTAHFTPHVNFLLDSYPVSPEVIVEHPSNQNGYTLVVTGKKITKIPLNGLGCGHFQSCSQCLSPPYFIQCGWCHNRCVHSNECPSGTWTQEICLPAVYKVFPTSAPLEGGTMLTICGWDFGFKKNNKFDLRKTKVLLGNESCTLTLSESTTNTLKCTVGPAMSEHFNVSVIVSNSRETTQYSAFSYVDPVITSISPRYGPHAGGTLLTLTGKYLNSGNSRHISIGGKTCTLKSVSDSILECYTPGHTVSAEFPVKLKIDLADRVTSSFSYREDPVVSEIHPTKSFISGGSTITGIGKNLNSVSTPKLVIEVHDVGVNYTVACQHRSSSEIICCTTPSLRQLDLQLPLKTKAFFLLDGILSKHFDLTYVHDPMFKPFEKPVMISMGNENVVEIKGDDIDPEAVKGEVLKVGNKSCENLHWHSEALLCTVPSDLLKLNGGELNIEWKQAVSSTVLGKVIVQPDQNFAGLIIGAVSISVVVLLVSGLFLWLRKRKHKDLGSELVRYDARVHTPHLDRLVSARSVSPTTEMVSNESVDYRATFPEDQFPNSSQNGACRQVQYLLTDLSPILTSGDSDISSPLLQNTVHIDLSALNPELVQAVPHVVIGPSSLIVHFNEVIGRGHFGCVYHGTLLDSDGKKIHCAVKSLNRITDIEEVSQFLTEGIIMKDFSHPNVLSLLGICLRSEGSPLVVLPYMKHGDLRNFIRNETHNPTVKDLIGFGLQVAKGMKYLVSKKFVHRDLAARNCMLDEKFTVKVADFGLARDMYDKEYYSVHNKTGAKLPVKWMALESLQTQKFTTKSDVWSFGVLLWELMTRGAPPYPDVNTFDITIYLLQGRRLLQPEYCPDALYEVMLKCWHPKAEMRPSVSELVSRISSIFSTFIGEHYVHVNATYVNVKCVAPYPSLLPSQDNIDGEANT

For `CCCC[C@@H](N)C(=O)N[C@@H](CCSC)C(=O)N[C@H](C(=O)NCCCCCC(N)=O)[C@@H](C)CC` [D-Nle-Met-Ile-NH—(CH2)5—CONH2] (H-[dNle]MI[Ahx]-NH2), which “inhibition of HGF-dependent Met auto-phosphorylation” value [1] is on record?
The value was “no ability to effect on Met activation”.

What about the “inhibition of HGF-dependent MDCK cell scattering” value [2] of the same compound?
Its value is “not different”.

`CCCC[C@@H](N)C(=O)N[C@@H](Cc1c[nH]c2ccccc12)C(=O)N[C@H](C(=O)NCCCCCC(N)=O)[C@@H](C)CC` [D-Nle-Trp-Ile-NH—(CH2)5—CONH2] (H-[dNle]WI[Ahx]-NH2) was tested. Which “inhibition of HGF-dependent Met auto-phosphorylation” value [1] did it give?
Its value is “intermediate inhibitory activity”.

What about the “inhibition of HGF-dependent MDCK cell proliferation” value [3] of the same compound?
The value was “inhibitory activity, albeit less than that observed with the most potent analogs”.

What about the “inhibition of HGF-dependent MDCK cell scattering” value [2] of the same compound?
Its value is “different from the HGF alone group but not different from the control group”.

Which “fold increase in the number of spines” value ([4]; 10^−12 M, 5 day treatment, vs vehicle) does the source give for `CCCC[C@H](N)C(=O)N[C@@H](Cc1ccc(O)cc1)C(=O)N[C@H](C(=O)N[C@@H](Cc1c[nH]cn1)C(=O)N1CCC[C@H]1C(=O)N[C@@H](Cc1ccccc1)C(=O)O)[C@@H](C)CC` [Nle1-AngIV, reference compound] (H-[Nle]YIHPF-OH; N-terminus and C-terminus assumed) here?
The value was “greater than 2 fold”.

And the “fold increase over control mEPSC frequency” value ([5]; 10-12 M, 5 days)?
The value was 1.7 fold.

And the “mean frequency of AMPA-mediated mEPSCs” value ([5]; 10-12 M, 5 days (Example 1))?
The value was 5.27 Hz.

What about the “spines per 50 μm dendrite length, CA1 neurons” value [6] of the same compound?
The value was 11 spines per 50 μm dendrite length.

What about the “mean spine numbers per 50 μm dendrite length” value [7] of the same compound?
The value was 20.0.

With `CN1[C@@H]2C[C@@H](OC(=O)[C@H](CO)c3ccccc3)C[C@H]1[C@@H]1O[C@@H]12` [scopolamine, scopolamine hydrobromide] as the compound, how does the “mean latency to find the pedestal, final day of training (day 8)” value ([8]; scopolamine icv pretreated rats, agents 300 pmol icv) read?
Its value is 84.8 s.

For “DYIRNC (Synthetic hinge peptide) [reference compound]”, which “effect on basal spinogenesis” value ([4]; Hinge alone, wide range of doses) is on record?
The value was “no effect on spinogenesis”.

What about the “inhibition of stimulated spine formation” value ([4]; neurons stimulated with 10 ng/ml HGF, 10^−12 M Nle1-AngIV or 10^−12 M Dihexa) of the same compound?
The value was “effectively inhibit spine formation”.

What about the “mean frequency of mEPSCs” value ([5]; 10^−12 M, 5 days (Example 2)) of the same compound?
The value was 4.51±0.47.

What about the “inhibition of scattering of MDCK cells” value ([2]; Hinge) of the same compound?
Its value is “inhibit scattering”.

And the “mean latency to find the pedestal, final day of training (day 8)” value ([8]; aCSF followed by Hinge (no scopolamine), icv)?
The value was 46.1 s.
